Results from patent publication US20260166162A1, “CARBON CHAIN SUBSTANCE FOR REGULATING TRANSMEMBRANE TRANSPORT AND FLUIDITY OF CELL MEMBRANES, AND PREPARATION AND USE THEREOF” (priority 2022, published 2026).
Like-named read-outs stand apart in the source and are kept apart here.

Columns and labels:
Assay type in all cases: cell-based
human pancreatic β-cells = experiment: Insulin secretion from human islet β cells (ELISA of supernatant); conditions: 6 h
HIV pseudovirus (18A-41) = conditions: 293T cells pretreated 4 h, n=3
Epithelial cells = experiment: Interaction of GFP-labelled complexes with cell membrane of epithelial cells (Example II-52, Table II-30); conditions: GFP-labelled complex, epithelial cells pretreated 4 hours, n=3
Method: The fatty acids were combined with water-soluble small molecules to form a complex, which were labeled with GFP fluorescence to detect cell membrane fluorescence. […] After the cells were stably adhered, the water-soluble fatty acid complexes in the following table were added to the cell culture medium. […] The medium with the drug was pipetted and replaced with normal DMEM medium. […] The green fluorescence intensity was analyzed by imageJ (see Table II-30, n=3).

293T cells = experiment: Cellular phagocytosis of DiD-loaded lipid vesicles (nano-drugs) by 293T cells (Example II-51, Table II-29); conditions: 293T cells pretreated 4 h, DiD lipid vesicles 2 h, n=3, untreated control 226.46 ± 1.26
[1] = system: SARS-CoV-2 pseudovirus (B.1.526.2); conditions: n=3
[2] = 100 μM, negative value = promotes infection

In the case of `CCCCCC(=O)OC(C)C(N)C(=O)O` (stereo not drawn) [Thr-n-hexanoic acid], the “Insulin” value (human pancreatic β-cells; 2 nM) was 0.38 ng/mL, the “Insulin” value (human pancreatic β-cells; 5 nM) was 0.37 ng/mL and the “Insulin” value (human pancreatic β-cells; 10 nM) was 0.47 ng/mL. The “Insulin” value (human pancreatic β-cells; 50 nM) was 0.54 ng/mL, the “Insulin” value (human pancreatic β-cells; 50 μM) was 1.41 ng/mL and the “Insulin” value (human pancreatic β-cells; 100 μM) was 1.46 ng/mL.
With Glucose-pentadecanedioic acid the “Insulin” value (human pancreatic β-cells; 2 nM) was 0.22 ng/mL, the “Insulin” value (human pancreatic β-cells; 5 nM) was 0.23 ng/mL and the “Insulin” value (human pancreatic β-cells; 10 nM) was 0.36 ng/mL. For the same compound, the “Insulin” value (human pancreatic β-cells; 50 nM) was 0.43 ng/mL, the “Insulin” value (human pancreatic β-cells; 50 μM) was 1.48 ng/mL and the “Insulin” value (human pancreatic β-cells; 100 μM) was 1.52 ng/mL.
For Glucose-docosanedioic acid, the “Insulin” value (human pancreatic β-cells; 2 nM) was 0.25 ng/mL, the “Insulin” value (human pancreatic β-cells; 5 nM) was 0.27 ng/mL and the “Insulin” value (human pancreatic β-cells; 10 nM) was 0.41 ng/mL. The “Insulin” value (human pancreatic β-cells; 50 nM) was 0.50 ng/mL, the “Insulin” value (human pancreatic β-cells; 50 μM) was 1.41 ng/mL and the “Insulin” value (human pancreatic β-cells; 100 μM) was 1.46 ng/mL.
For `CCCCCCCCCCCCCCCCCC(=O)OCC(N)C(=O)O` (stereo not drawn) [Ser-stearic acid], the “Insulin” value (human pancreatic β-cells; 2 nM) was 0.28 ng/mL, the “Insulin” value (human pancreatic β-cells; 5 nM) was 0.30 ng/mL and the “Insulin” value (human pancreatic β-cells; 10 nM) was 0.41 ng/mL. For the same compound, the “Insulin” value (human pancreatic β-cells; 50 nM) was 0.48 ng/mL, the “Insulin” value (human pancreatic β-cells; 50 μM) was 1.38 ng/mL and the “Insulin” value (human pancreatic β-cells; 100 μM) was 1.41 ng/mL.
With Glucose-hexadecanoic acid the “Inhibition rate (%)” value (HIV pseudovirus (18A-41); 2 nM) was 50.54 ± 1.56%, the “Inhibition rate (%)” value (HIV pseudovirus (18A-41); 5 nM) was 57.26 ± 6.09% and the “Inhibition rate (%)” value (HIV pseudovirus (18A-41); 10 nM) was 86.44 ± 5.03%. For the same compound, the “Inhibition rate (%)” value (HIV pseudovirus (18A-41); 50 nM) was 85.46 ± 3.99%, the “Inhibition rate (%)” value (HIV pseudovirus (18A-41); 100 nM) was 89.99 ± 5.07% and the “Inhibition rate (%)” value (HIV pseudovirus (18A-41); 1 μM) was -94.23 ± 9.06%. For the same compound, the “Inhibition rate (%)” value (HIV pseudovirus (18A-41); 10 μM) was -44.88 ± 1.03%, the “Inhibition rate (%)” value (HIV pseudovirus (18A-41); 50 μM) was 87.59 ± 5.03% and the “Inhibition rate (%)” value (HIV pseudovirus (18A-41); [2]) was 98.87 ± 6.03%.
In the case of Glucosamine-n-octanoic acid, the “Inhibition rate (%)” value (HIV pseudovirus (18A-41); 2 nM) was 22.59 ± 6.09%, the “Inhibition rate (%)” value (HIV pseudovirus (18A-41); 5 nM) was 54.47 ± 2.09% and the “Inhibition rate (%)” value (HIV pseudovirus (18A-41); 10 nM) was 78.34 ± 3.66%. For the same compound, the “Inhibition rate (%)” value (HIV pseudovirus (18A-41); 50 nM) was 89.33 ± 3.65%, the “Inhibition rate (%)” value (HIV pseudovirus (18A-41); 100 nM) was 88.76 ± 4.87% and the “Inhibition rate (%)” value (HIV pseudovirus (18A-41); 1 μM) was -62.33 ± 3.93%. The “Inhibition rate (%)” value (HIV pseudovirus (18A-41); 10 μM) was -84.26 ± 6.61%, the “Inhibition rate (%)” value (HIV pseudovirus (18A-41); 50 μM) was 51.09 ± 9.38% and the “Inhibition rate (%)” value (HIV pseudovirus (18A-41); [2]) was 53.68 ± 6.07%.
Compound `CCCCCCCCCCCCCCCCCCCC(=O)OC(C)C(N)C(=O)O` (stereo not drawn) [Thr-arachidic acid] has a Mean fluorescence intensity (Epithelial cells; 0 Hours after medium replaced) of 109.4 ± 3.7, a Mean fluorescence intensity (Epithelial cells; 2 Hours after medium replaced) of 104.4 ± 5.4 and a Mean fluorescence intensity (Epithelial cells; 4 Hours after medium replaced) of 91.5 ± 6.7. The Mean fluorescence intensity (Epithelial cells; 8 Hours after medium replaced) was 54.3 ± 7.2, the Mean fluorescence intensity (Epithelial cells; 12 Hours after medium replaced) was 41.4 ± 3.4 and the Mean fluorescence intensity (Epithelial cells; 24 Hours after medium replaced) was 34.2 ± 5.2. The “Insulin” value (human pancreatic β-cells; 2 nM) was 0.32 ng/mL, the “Insulin” value (human pancreatic β-cells; 5 nM) was 0.31 ng/mL and the “Insulin” value (human pancreatic β-cells; 10 nM) was 0.43 ng/mL. The “Insulin” value (human pancreatic β-cells; 50 nM) was 0.51 ng/mL, the “Insulin” value (human pancreatic β-cells; 50 μM) was 1.46 ng/mL and the “Insulin” value (human pancreatic β-cells; 100 μM) was 1.42 ng/mL.
In the case of `CCCC(=O)OCC(N)C(=O)O` (stereo not drawn) [Ser-n-butyric acid], the “Insulin” value (human pancreatic β-cells; 2 nM) was 0.41 ng/mL, the “Insulin” value (human pancreatic β-cells; 5 nM) was 0.39 ng/mL and the “Insulin” value (human pancreatic β-cells; 10 nM) was 0.49 ng/mL. For the same compound, the “Insulin” value (human pancreatic β-cells; 50 nM) was 0.53 ng/mL, the “Insulin” value (human pancreatic β-cells; 50 μM) was 1.42 ng/mL and the “Insulin” value (human pancreatic β-cells; 100 μM) was 1.51 ng/mL.
`CCCCCC=CCC=CCCCCCCCC(=O)OC(C)C(N)C(=O)O` (stereo not drawn) [Threonine-LA] showed a Fluorescence intensity (293T cells; 2 nM) of 100.46 ± 4.23, a Fluorescence intensity (293T cells; 5 nM) of 64.18 ± 0.47 and a Fluorescence intensity (293T cells; 10 nM) of 43.39 ± 0.55. The Fluorescence intensity (293T cells; 50 nM) was 45.68 ± 0.23, the Fluorescence intensity (293T cells; 100 nM) was 54.37 ± 0.63 and the Fluorescence intensity (293T cells; 1 uM) was 412.90 ± 0.43. It also gave a Fluorescence intensity (293T cells; 10 uM) of 507.63 ± 0.23, a Fluorescence intensity (293T cells; 50 uM) of 64.86 ± 0.19 and a Fluorescence intensity (293T cells; 100 uM) of 27.22 ± 0.16. The “Inhibition rate (%)” value ([1]; 2 nM) was 55.64 ± 1.68%, the “Inhibition rate (%)” value ([1]; 5 nM) was 71.66 ± 2.98% and the “Inhibition rate (%)” value ([1]; 10 nM) was 80.84 ± 4.59%. For the same compound, the “Inhibition rate (%)” value ([1]; 50 nM) was 79.83 ± 8.55%, the “Inhibition rate (%)” value ([1]; 100 nM) was 75.99 ± 2.66% and the “Inhibition rate (%)” value ([1]; 1 μM) was -82.33 ± 0.87%. The “Inhibition rate (%)” value ([1]; 10 μM) was -124.16 ± 0.47%, the “Inhibition rate (%)” value ([1]; 50 μM) was 71.36 ± 0.48% and the “Inhibition rate (%)” value ([1]; 100 μM) was 87.98 ± 0.55%.
In the case of Adenosine monophosphate-lauroic acid, the “Insulin” value (human pancreatic β-cells; 2 nM) was 0.37 ng/mL, the “Insulin” value (human pancreatic β-cells; 5 nM) was 0.38 ng/mL and the “Insulin” value (human pancreatic β-cells; 10 nM) was 0.43 ng/mL. For the same compound, the “Insulin” value (human pancreatic β-cells; 50 nM) was 0.49 ng/mL, the “Insulin” value (human pancreatic β-cells; 50 μM) was 1.49 ng/mL and the “Insulin” value (human pancreatic β-cells; 100 μM) was 1.53 ng/mL.
`CCC=CCC=CCC=CCC=CCC=CCCCC(=O)OCC(O)C1OC(=O)C(O)=C1O` (stereo not drawn) [Ascorbic Acid-EPA] was tested, and the “Inhibition rate (%)” value (HIV pseudovirus (18A-41); 2 nM) was 72.04 ± 6.02%, the “Inhibition rate (%)” value (HIV pseudovirus (18A-41); 5 nM) was 68.76 ± 5.79% and the “Inhibition rate (%)” value (HIV pseudovirus (18A-41); 10 nM) was 86.46 ± 3.84%. For the same compound, the “Inhibition rate (%)” value (HIV pseudovirus (18A-41); 50 nM) was 97.33 ± 5.33%, the “Inhibition rate (%)” value (HIV pseudovirus (18A-41); 100 nM) was 98.77 ± 3.22% and the “Inhibition rate (%)” value (HIV pseudovirus (18A-41); 1 μM) was -82.83 ± 7.59%. For the same compound, the “Inhibition rate (%)” value (HIV pseudovirus (18A-41); 10 μM) was -64.54 ± 5.62%, the “Inhibition rate (%)” value (HIV pseudovirus (18A-41); 50 μM) was 80.74 ± 4.76% and the “Inhibition rate (%)” value (HIV pseudovirus (18A-41); [2]) was 82.84 ± 4.75%.
With `NC(CCCCNC(=O)CCCCCCCCCCCCCCCCCCC(=O)O)C(=O)O` (stereo not drawn) [Lys-eicosanedioic acid] the “Insulin” value (human pancreatic β-cells; 2 nM) was 0.34 ng/mL, the “Insulin” value (human pancreatic β-cells; 5 nM) was 0.35 ng/mL and the “Insulin” value (human pancreatic β-cells; 10 nM) was 0.42 ng/mL. For the same compound, the “Insulin” value (human pancreatic β-cells; 50 nM) was 0.48 ng/mL, the “Insulin” value (human pancreatic β-cells; 50 μM) was 1.44 ng/mL and the “Insulin” value (human pancreatic β-cells; 100 μM) was 1.48 ng/mL.
With `CCCCCCCCCC(=O)NCCCCC(N)C(=O)O` (stereo not drawn) [Lys-n-decanoic acid] the “Insulin” value (human pancreatic β-cells; 2 nM) was 0.45 ng/mL, the “Insulin” value (human pancreatic β-cells; 5 nM) was 0.47 ng/mL and the “Insulin” value (human pancreatic β-cells; 10 nM) was 0.56 ng/mL. For the same compound, the “Insulin” value (human pancreatic β-cells; 50 nM) was 0.60 ng/mL, the “Insulin” value (human pancreatic β-cells; 50 μM) was 1.53 ng/mL and the “Insulin” value (human pancreatic β-cells; 100 μM) was 1.63 ng/mL.
For `CCCCCCCC/C=C\CCCCCCCC(=O)OCCO` [Ethylene glycol-OA], the “Inhibition rate (%)” value (HIV pseudovirus (18A-41); 2 nM) was 82.74 ± 5.06%, the “Inhibition rate (%)” value (HIV pseudovirus (18A-41); 5 nM) was 83.09 ± 3.25% and the “Inhibition rate (%)” value (HIV pseudovirus (18A-41); 10 nM) was 89.89 ± 4.06%. For the same compound, the “Inhibition rate (%)” value (HIV pseudovirus (18A-41); 50 nM) was 94.33 ± 6.32%, the “Inhibition rate (%)” value (HIV pseudovirus (18A-41); 100 nM) was 93.46 ± 3.23% and the “Inhibition rate (%)” value (HIV pseudovirus (18A-41); 1 μM) was -92.33 ± 2.66%. The “Inhibition rate (%)” value (HIV pseudovirus (18A-41); 10 μM) was -84.04 ± 6.24%, the “Inhibition rate (%)” value (HIV pseudovirus (18A-41); 50 μM) was 79.46 ± 8.46% and the “Inhibition rate (%)” value (HIV pseudovirus (18A-41); [2]) was 86.47 ± 5.86%.
